How the values were obtained:
[1] = tested on: Anti-secretory (gastric secretion volume); test: Anti-secretory test (Shay et al); type: in vivo
Description: (§1) Anti-ulcer activity was determined by the stress-induced erosion test of Senay & Levine, Proc. Soc. Exp. Biol. Med., 124, 1221-3(1967) and anti-secretory activity by the test of H. Shay, D. Sun and H. Greenstein, Gastroentarology, 1954, 26, 903-13 as exemplified by Beattie et al J. Med. Chem., 20, 714 (1977). […] However, some compounds show activity in tests for anti-hypertensive activity.

[2] = tested on: Female rats rendered hypertensive (unilateral nephrectomy, deoxycorticosterone acetate); test: Anti-hypertensive activity, Procedure B (deoxycorticosterone acetate hypertensive rats, systolic pressure); type: in vivo, rat; conditions: 50 mg/kg orally, DOCA hypertensive female rats
Description: (§2) Some compounds of the invention were tested for anti-hypertensive activity by the following procedures.
Female rats are rendered hypertensive by unilateral nephrectomy and the s.c. implantation of a pellet containing 30 mg of deoxycorticosterone acetate. The drinking water is replaced by normal saline ad lib for the first four weeks following preparation. Blood pressures stabilise at a hypertensive level after 6 weeks. Systolic pressure is measured indirectly before dosing with a test compound using an E and M pneumatic pulse transducer and a Devices MX2 recorder. Groups of 4 rats are dosed orally with suspensions or solutions of the test compound in 0.5% hydroxypropyl-methyl-cellulose 0.9% saline vehicle. Blood pressures are recorded again at 2, 6 and 24 hours and the results, expressed as a percentage of the pre-dose values compared with those of a similar group of rats receiving vehicle alone.

[3] = tested on: Stress-induced erosion; test: Stress-induced erosion test (Senay & Levine), anti-ulcer activity; type: in vivo
Description: as §1

[4] = tested on: male spontaneously hypertensive rats; test: Anti-hypertensive activity, Procedure A (spontaneously hypertensive rats, systolic pressure); type: in vivo, rat
Description: as §2
Systolic pressure of male spontaneously hypertensive rats is measured by an indirect technique using the Decker Caudal Plethylsmograph or other appropriate sensor. Groups usually consist of 4 rats. Drugs are usually administered orally. Pressures are usually read prior to drug administration and at 1.5, 4 and 24 hours thereafter. The schedule may be altered depending upon the behaviour of the drug.

Row | SMILES | Anti-secretory (Shay et al), % change in volume ([1]; Dose 30 mg/kg) | inhibition in vivo at 100 mg/kg [3] | other results
1 | Cc1[nH]cnc1CSc1cccc[n+]1C [Example 1, 1-Methyl-2(4-[5-methylimidazolyl]methylthio)pyridinium chloride] | -65% | 69% | Anti-secretory (Shay et al), % change in volume ([1]; Dose 10 mg/kg): -43%; Anti-hypertensive activity (Procedure B) [2]: inactive
2 | C[n+]1ccccc1SCc1ccccn1 [Example 2, 1-Methyl-2(2-pyridyl)methylthio)pyridinium chloride] | -31% | 50% | –
3 | C[n+]1ccccc1SCc1c[nH]cn1 [Example 3, 1-Methyl-2(4-imidazolylmethylthio)pyridinium chloride] | -71% | 67% | Anti-hypertensive activity (Procedure A) ([4]; 75 mg/kg orally): showed activity
4 | Cc1[nH]cnc1CSc1nccn1C [Example 4, 1-Methyl-2(4-[5-methylimidazolyl]methylthio)imidazole] | -87% | 83% | Anti-secretory (Shay et al), % change in volume ([1]; Dose 10 mg/kg): -33%; Anti-hypertensive activity (Procedure B) [2]: active; inhibition in vivo at 30 mg/kg [3]: 58%
5 | C[n+]1ccccc1SCc1cccnc1 [Example 5, 1-Methyl-2-(3-pyridylmethylthio)pyridinium chloride] | -55% | 58% | Anti-hypertensive activity (Procedure A) ([4]; 75 mg/kg orally): showed activity
6 | Cc1[nH]cnc1CSc1ccccn1 [Example 6, 2-(4-[5-Methylimidazolyl]methylthio)pyridine] | – | – | Anti-hypertensive activity (Procedure A) ([4]; 75 mg/kg orally): inactive; inhibition in vivo at 3 mg/kg ([3]; Dose 3 mg/kg): 56%; inhibition in vivo at 10 mg/kg ([3]; Dose 10 mg/kg): 68%
7 | Cc1[nH]cnc1CSc1ccncc1 [Example 7, 4-(4-[5-Methylimidazolyl]methylthio)pyridine] | -60% | 87% | Anti-hypertensive activity (Procedure B) [2]: inactive
8 | c1ccc(SCc2c[nH]cn2)nc1 [Example 8, 2-(4-Imidazolylmethylthio)pyridine] | – | 79% | inhibition in vivo at 30 mg/kg [3]: 70%
9 | C[n+]1ccccc1SCc1ccncc1 [Example 9, 1-Methyl-2-([(4-pyridyl)methyl]thio)pyridinium chloride] | – | – | Anti-hypertensive activity (Procedure A) ([4]; 50 mg/kg orally): showed activity
10 | C[n+]1ccccc1SCc1ccc2ccccc2n1 [Example 10, 1-Methyl-2([(2-quinolyl)methyl]thio)pyridinium chloride] | – | – | Anti-hypertensive activity (Procedure A) ([4]; 50 mg/kg orally): showed activity
11 | C[n+]1ccccc1SCCN1CCCCC1 [Example 11, 1-Methyl-2-[(2-piperidinoethyl)thio]pyridinium chloride] | -35% | – | –

Source: US4343805A, “Heterocyclic compounds” (John Wyeth & Brother Limited, priority 1978, dated 1982)
